In patent US9556201B2, “Bicyclic pyridines and analogs as sirtuin modulators” (GLAXOSMITHKLINE LLC, priority 2009, dated 2017):

Biological target: T1, SIRT1 (Homo sapiens, UniProt Q96EB6)
T1 sequence (Q96EB6 1-747): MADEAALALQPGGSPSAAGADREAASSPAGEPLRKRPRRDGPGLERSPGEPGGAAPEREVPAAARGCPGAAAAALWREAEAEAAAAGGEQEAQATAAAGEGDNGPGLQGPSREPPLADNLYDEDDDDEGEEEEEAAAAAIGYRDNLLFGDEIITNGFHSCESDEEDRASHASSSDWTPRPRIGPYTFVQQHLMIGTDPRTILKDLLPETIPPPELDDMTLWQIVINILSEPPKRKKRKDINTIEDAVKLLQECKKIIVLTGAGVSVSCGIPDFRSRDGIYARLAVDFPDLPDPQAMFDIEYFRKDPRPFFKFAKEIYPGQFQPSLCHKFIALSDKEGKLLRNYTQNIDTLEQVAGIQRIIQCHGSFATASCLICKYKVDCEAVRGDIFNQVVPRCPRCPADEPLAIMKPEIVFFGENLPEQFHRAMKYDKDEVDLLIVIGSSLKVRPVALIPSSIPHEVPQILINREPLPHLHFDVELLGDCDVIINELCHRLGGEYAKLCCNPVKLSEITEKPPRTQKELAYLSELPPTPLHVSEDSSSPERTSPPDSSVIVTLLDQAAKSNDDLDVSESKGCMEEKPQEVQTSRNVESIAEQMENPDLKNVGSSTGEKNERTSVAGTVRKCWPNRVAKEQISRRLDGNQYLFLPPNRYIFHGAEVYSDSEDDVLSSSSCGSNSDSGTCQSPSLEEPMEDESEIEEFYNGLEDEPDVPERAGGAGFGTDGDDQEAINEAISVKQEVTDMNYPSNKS
Assay: Mass spectrometry based assay to identify modulators of SIRT1 activity (deacetylation of p53-based acetylated peptide substrate)
Type: biochemical
Details: SIRT1 activation; for Emax: 25 min, read-out: % FOLD ACT. (percent maximum fold activation)
Excerpt: A mass spectrometry based assay was used to identify modulators of SIRT1 activity. The mass spectrometry based assay utilizes a peptide having 20 amino acid residues as follows: Ac-EE-K(biotin)-GQSTSSHSK(Ac)NleSTEG-K(5TMR)-EE-NH2 (SEQ ID NO: 1) wherein K(Ac) is an acetylated lysine residue and Nle is a norleucine. The peptide is labeled with the fluorophore 5TMR (excitation 540 nm/emission 580 nm) at the C-terminus. The sequence of the peptide substrate is based on p53 with several modifications. In addition, the methionine residue naturally present in the sequence was replaced with the norleucine because the methionine may be susceptible to oxidation during synthesis and purification.
The mass spectrometry assay is conducted as follows: […] peptide substrate and 120 μM βNAD^+ is incubated with 10 nM SIRT1 for 25 minutes at 25° C. in a reaction buffer (50 mM Tris-acetate pH 8, 137 mM NaCl, 2.7 mM KCl, 1 mM MgCl2, 5 mM DTT, 0.05% BSA). Test compounds may be added to the reaction as described above. The SirT1 gene is cloned into a T7-promoter containing vector and transformed into BL21(DE3). After the 25 minute incubation with SIRT1, 10 μL of 10% formic acid is added to stop the reaction. Reactions are sealed and frozen for later mass spec analysis. Determination of the mass of the substrate peptide allows for precise determination of the degree of acetylation (i.e. starting material) as compared to deacetylated peptide (product).
A control for inhibition of sirtuin activity is conducted by adding 1 μL of 500 mM nicotinamide as a negative control at the start of the reaction (e.g., permits determination of maximum sirtuin inhibition). A control for activation of sirtuin activity is conducted using 10 nM of sirtuin protein, with 1 μL of DMSO in place of compound, to determine the amount of deacetylation of the substrate at a given timepoint within the linear range of the assay. This timepoint is the same as that used for test compounds and, within the linear range, the endpoint represents a change in velocity.
For the above assay, SIRT1 protein was expressed and purified as follows. The SirT1 gene was cloned into a T7-promoter containing vector and transformed into BL21(DE3). The protein was expressed by induction with 1 mM IPTG as an N-terminal His-tag fusion protein at 18° C. overnight and harvested at 30,000×g. Cells were lysed with lysozyme in lysis buffer (50 mM Tris-HCl, 2 mM Tris[2-carboxyethyl]phosphine (TCEP), 10 μM ZnCl2, 200 mM NaCl) and further treated with sonication for 10 min for complete lysis. The protein was purified over a Ni-NTA column (Amersham) and fractions containing pure protein were pooled, concentrated and run over a sizing column (Sephadex S200 26/60 global). The peak containing soluble protein was collected and run on an Ion-exchange column (MonoQ). Gradient elution (200 mM-500 mM NaCl) yielded pure protein. This protein was concentrated and dialyzed against dialysis buffer (20 mM Tris-HCl, 2 mM TCEP) overnight. The protein was aliquoted and frozen at −80° C. until further use.

| SMILES | Emax [%] | EC1.5 |
| --- | --- | --- |
| O=C(Nc1nccs1)N1CCOc2ccc(-c3cccc(C(F)(F)F)c3)nc21 [Compound 500, N-(thiazol-2-yl)-6-(3-(trifluoromethyl)phenyl)-2H-pyrido[3,2-b][1,4]oxazine-4(3H)-carboxamide] | > 200 | A (EC1.5<1.0 μM) |
| Cc1cnc(CNC(=O)N2CCOc3ccc(-c4cccc(C(F)(F)F)c4)nc32)cn1 [Compound 504] | ≤ 200 | C (EC1.5>25 μM) |
| O=C(Nc1ncc(CN2CCCC2)s1)N1CCOc2ccc(-c3cccc(C(F)(F)F)c3)nc21 [Compound 505, N-(5-(pyrrolidin-1-ylmethyl)thiazol-2-yl)-6-(3-(trifluoromethyl)phenyl)-2H-pyrido[3,2-b][1,4]oxazine-4(3H)-carboxamide] | ≤ 200 | C (EC1.5>25 μM) |
| O=C(Nc1ccc(CN2CCOCC2)nc1)N1CCOc2ccc(-c3cccc(C(F)(F)F)c3)nc21 [Compound 507, N-(6-(morpholinomethyl)pyridin-3-yl)-6-(3-(trifluoromethyl)phenyl)-2H-pyrido[3,2-b][1,4]oxazine-4(3H)-carboxamide] | > 200 | A (EC1.5<1.0 μM) |
| Cc1noc(NC(=O)N2CCOc3ccc(-c4cccc(C(F)(F)F)c4)nc32)c1C [Compound 509] | > 200 | B (EC1.5 1-25 μM) |
| O=C(Nc1cccc(N2CCC2)n1)N1CCOc2ccc(-c3cccc(C(F)(F)F)c3)nc21 [Compound 512, N-(6-(azetidin-1-yl)pyridin-2-yl)-6-(3-(trifluoromethyl)phenyl)-2H-pyrido[3,2-b][1,4]oxazine-4(3H)-carboxamide] | > 200 | B (EC1.5 1-25 μM) |
| O=C(Nc1ccncn1)N1CCOc2ccc(-c3cccc(F)c3)nc21 [Compound 514] | > 200 | A (EC1.5<1.0 μM) |
| COc1cccc(-c2ccc3c(n2)N(C(=O)Nc2ccncn2)CCO3)c1 [Compound 515] | > 200 | B (EC1.5 1-25 μM) |
| O=C(Nc1ccncn1)N1CCOc2ccc(-c3cccnc3)nc21 [Compound 516] | ≤ 200 | C (EC1.5>25 μM) |
| Cc1cccc(-c2ccc3c(n2)N(C(=O)Nc2ccncn2)CCO3)c1 [Compound 517] | > 200 | A (EC1.5<1.0 μM) |
| O=C(c1ccnc(OCC(O)CO)c1)N1CCOc2ccc(-c3cccc(C(F)(F)F)c3)nc21 (stereo not shown) [Compound 518, (2-(2,3-dihydroxypropoxy)pyridin-4-yl)(6-(3-(trifluoromethyl)phenyl)-2H-pyrido[3,2-b][1,4]oxazin-4(3H)-yl)methanone] | ≤ 200 | B (EC1.5 1-25 μM) |
| CN1C(=O)CN(C(=O)Nc2nccs2)c2nc(-c3cccc(C(F)(F)F)c3)ccc21 [Compound 520, 1-methyl-2-oxo-N-(thiazol-2-yl)-6-(3-(trifluoromethyl)phenyl)-2,3-dihydropyrido[2,3-b]pyrazine-4(1H)-carboxamide] | ≤ 200 | B (EC1.5 1-25 μM) |
| Cc1csc(NC(=O)N2CC(=O)N(C)c3ccc(-c4cccc(C(F)(F)F)c4)nc32)n1 [Compound 521] | ≤ 200 | B (EC1.5 1-25 μM) |
| CN1C(=O)CN(C(=O)NC2CCOC2=O)c2nc(-c3cccc(C(F)(F)F)c3)ccc21 (stereo not shown) [Compound 522] | ≤ 200 | C (EC1.5>25 μM) |
| CN1C(=O)CN(C(=O)Nc2ncco2)c2nc(-c3cccc(C(F)(F)F)c3)ccc21 [Compound 523] | ≤ 200 | C (EC1.5>25 μM) |
| CN1C(=O)CN(C(=O)Nc2ncn[nH]2)c2nc(-c3cccc(C(F)(F)F)c3)ccc21 [Compound 524] | ≤ 200 | C (EC1.5>25 μM) |
| CN1C(=O)CN(C(=O)Nc2ccncc2)c2nc(-c3cccc(C(F)(F)F)c3)ccc21 [Compound 525] | > 200 | B (EC1.5 1-25 μM) |

| SMILES | Emax [%] | EC1.5 |
| --- | --- | --- |
| CN1C(=O)CN(C(=O)Nc2ccncn2)c2nc(-c3cccc(C(F)(F)F)c3)ccc21 [Compound 526] | > 200 | B (EC1.5 1-25 μM) |
| CN1C(=O)CN(C(=O)Nc2cncnc2)c2nc(-c3cccc(C(F)(F)F)c3)ccc21 [Compound 527] | ≤ 200 | B (EC1.5 1-25 μM) |
| CN1C(=O)CN(C(=O)Nc2cccnn2)c2nc(-c3cccc(C(F)(F)F)c3)ccc21 [Compound 528] | ≤ 200 | C (EC1.5>25 μM) |
| CN1CCN(C(=O)Nc2nccs2)c2nc(-c3cccc(C(F)(F)F)c3)ccc21 [Compound 529, 1-methyl-N-(thiazol-2-yl)-6-(3-(trifluoromethyl)phenyl)-2,3-dihydropyrido[2,3-b]pyrazine-4(1H)-carboxamide] | > 200 | – |
| Cc1cnc(NC(=O)N2CCN(C)c3ccc(-c4cccc(C(F)(F)F)c4)nc32)s1 [Compound 530] | ≤ 200 | B (EC1.5 1-25 μM) |
| CN1CCN(C(=O)Nc2cncnc2)c2nc(-c3cccc(C(F)(F)F)c3)ccc21 [Compound 536] | > 200 | A (EC1.5<1.0 μM) |
| CN1CCN(C(=O)NC2CCOC2=O)c2nc(-c3cccc(C(F)(F)F)c3)ccc21 (stereo not shown) [Compound 540] | ≤ 200 | C (EC1.5>25 μM) |
| O=C(Nc1ccncc1)N1CCOc2ccc(-c3cccc(Cl)c3)nc21 [Compound 541, 6-(3-chlorophenyl)-N-(pyridin-4-yl)-2H-pyrido[3,2-b][1,4]oxazine-4(3H)-carboxamide] | > 200 | A (EC1.5<1.0 μM) |
| O=C(Nc1ccncc1)N1CCOc2ccc(-c3cccc(F)c3)nc21 [Compound 542] | > 200 | B (EC1.5 1-25 μM) |
| O=C(Nc1ccncc1)N1CCOc2ccc(-c3ccccc3F)nc21 [Compound 544] | > 200 | B (EC1.5 1-25 μM) |
| O=C(Nc1ccncc1)N1CCOc2ccc(-c3ccccc3C(F)(F)F)nc21 [Compound 546] | > 200 | B (EC1.5 1-25 μM) |
| O=C(Nc1cncc(F)c1)N1CCOc2ccc(-c3cccc(C(F)(F)F)c3)nc21 [Compound 547] | > 200 | A (EC1.5<1.0 μM) |
| O=C(Nc1ccncc1)N1CCCOc2ccc(-c3cccc(F)c3)nc21 [Compound 550] | > 200 | B (EC1.5 1-25 μM) |
| Cc1ccc(NC(=O)N2CCOc3ccc(-c4cccc(C(F)(F)F)c4)nc32)c(C)n1 [Compound 552] | > 200 | B (EC1.5 1-25 μM) |
| Cc1cc(C)c(NC(=O)N2CCOc3ccc(-c4cccc(C(F)(F)F)c4)nc32)cn1 [Compound 553] | ≤ 200 | B (EC1.5 1-25 μM) |
| Cc1ccc(NC(=O)N2CCOc3ccc(-c4cccc(C(F)(F)F)c4)nc32)cn1 [Compound 554] | > 200 | A (EC1.5<1.0 μM) |
| Cc1ncccc1NC(=O)N1CCOc2ccc(-c3cccc(C(F)(F)F)c3)nc21 [Compound 555] | ≤ 200 | B (EC1.5 1-25 μM) |
